The target in this test is T1, PPAR γ (Homo sapiens, UniProt P37231).
T1 construct: expressed in transfected cells; host or cells: HEK293EBNA
T1 sequence (P37231 174-475 isoform P37231-2): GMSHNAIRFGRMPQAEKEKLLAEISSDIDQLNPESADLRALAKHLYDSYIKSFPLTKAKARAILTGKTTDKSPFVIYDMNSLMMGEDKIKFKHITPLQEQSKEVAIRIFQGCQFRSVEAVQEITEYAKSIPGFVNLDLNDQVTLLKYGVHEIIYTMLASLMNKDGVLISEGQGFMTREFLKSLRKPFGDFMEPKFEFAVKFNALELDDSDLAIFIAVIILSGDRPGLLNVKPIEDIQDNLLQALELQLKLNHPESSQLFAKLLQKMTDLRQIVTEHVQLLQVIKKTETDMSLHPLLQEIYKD
The experiment in a line: PPAR γ activation action based on transactivation assay of PPAR γ by transient gene transfer (GAL4-PPAR γ chimeric receptor, luciferase reporter, HEK293EBNA cells). Format: cell-based. The following applies: concentration showing 50% of the compound's own efficacy (maximum activity rate relative to pioglitazone 10 μmol/L = 100%), 24 hr. The method, then: The agonist activity of compound (I) to PPAR γ was determined by a transactivation assay method using a chimeric nuclear receptor of a DNA binding region of a yeast transcription factor GAL4 and a PPAR γ ligand binding region. Specifically, the PPAR γ agonist activity of compound (I) was evaluated by the following method based on the method of Lehmann et al. (J Biol Chem., 1995, vol. 270, page 12953).
HEK293EBNA cells cultured in Dulbecco's Modified Eagle medium (Invitrogen) containing 10 v/v % fetal calf serum (Invitrogen) were used. 30 mL of the above-mentioned cells (density: 1×10^5 cells/mL) were inoculated in a […] (Iwaki Glass), and cultured overnight. Using SuperFect Transfection Reagent (QIAGEN), a plasmid expressing a GAL4-PPAR γ chimeric nuclear receptor fusing 174-475 amino acids, which are human PPAR γ ligand binding region, and 1-147 amino acids, which are GAL4 DNA binding region, and a reporter plasmid expressing a GAL4 responsive luciferase were transiently introduced into the cells at a proportion of 4:1. After 5 hr from transfection, the cells were detached from the culture dish, and the detached cells (density: 2×10^4 cells/mL) were inoculated by 100 μL in each well of a 96 well white plate (SUMITOMO BAKELITE), and cultured overnight. The medium was removed, compound (I) diluted in various concentrations with serum-free Dulbecco's Modified Eagle medium was added by 100 μL, and the mixture was reacted under a 5% carbon dioxide gas stream (5% CO2) at 37° C. for 24 hr. On the other hand, as a positive control, 10 μmol/L of pioglitazone (100 μL) was added, and the mixture was reacted under a 5% carbon dioxide gas stream (5% CO2) at 37° C. for 24 hr. As a substrate of luciferase, 100 μL of Steady-Glo (Promega) was added to each well and the mixture was thoroughly stirred. Immediately thereafter, the chemical luminescence due to luciferase was measured using TopCount NTX (Packard).
The agonist activity (activity rate (%)) of compound (I) to PPAR γ was calculated according to the following formula, as a relative activity when the agonist activity on addition of pioglitazone (10 μmol/L) was 100%.
On to `CCCc1nc2c(C)cccc2n1C(C)c1ccc2c(c1)CCc1ccccc1/C2=C\c1noc(=O)[nH]1` (stereo not drawn) [Compound 85, (E)-2-[1-(2-Propyl-4-methylbenzimidazol-1-yl)ethyl]-5-(5-oxo-4,5-dihydro-1,2,4-oxadiazol-3-yl)methylene-10,11-dihydro-5H-dibenzo[a,d]cycloheptene], for which a half-maximal response (EC50) required 0.027 µM.
`CCCc1nc2c(C)cc(-c3cccs3)cc2n1Cc1ccc2c(c1)CCc1ccccc1/C2=C\c1nnn[nH]1` [Compound 67, (E)-2-[4-Methyl-2-propyl-6-(2-thienyl)benzimidazol-1-yl]methyl-5-(1H-tetrazol-5-yl)methylene-10,11-dihydro-5H-dibenzo[a,d]cycloheptene]: a half-maximal response (EC50) required 0.156 µM.
For the molecule `Cc1cc(-c2ccccc2)cc2c1nc(C)n2Cc1ccc2c(c1)CCc1ccccc1/C2=C\c1nnn[nH]1` [Compound 54, (E)-2-(2,4-Methyl-6-phenylbenzimidazol-1-yl)methyl-5-(1H-tetrazol-5-yl)methylene-10,11-dihydro-5H-dibenzo[a,d]cycloheptene], a half-maximal effect (EC50) was put at 0.054 µM.

(Values after US9475805B2, “Tricyclic compound” (Kyowa Hakko Kirin Co., Ltd., priority 2008, dated 2016).)
